Test results: publication PMC6930600, “Synthesis of Aryl Propionamide Scaffold Containing a Pentafluorosulfanyl Moiety as SARMs” (Molecules, 2019)

Target: T1, androgen receptor (AR) (Homo sapiens, UniProt P10275)
T1 construct: AR expressed transiently from plasmid pSVAR0 (known as a human full-length AR expression vector)
T1 sequence (P10275 1-920): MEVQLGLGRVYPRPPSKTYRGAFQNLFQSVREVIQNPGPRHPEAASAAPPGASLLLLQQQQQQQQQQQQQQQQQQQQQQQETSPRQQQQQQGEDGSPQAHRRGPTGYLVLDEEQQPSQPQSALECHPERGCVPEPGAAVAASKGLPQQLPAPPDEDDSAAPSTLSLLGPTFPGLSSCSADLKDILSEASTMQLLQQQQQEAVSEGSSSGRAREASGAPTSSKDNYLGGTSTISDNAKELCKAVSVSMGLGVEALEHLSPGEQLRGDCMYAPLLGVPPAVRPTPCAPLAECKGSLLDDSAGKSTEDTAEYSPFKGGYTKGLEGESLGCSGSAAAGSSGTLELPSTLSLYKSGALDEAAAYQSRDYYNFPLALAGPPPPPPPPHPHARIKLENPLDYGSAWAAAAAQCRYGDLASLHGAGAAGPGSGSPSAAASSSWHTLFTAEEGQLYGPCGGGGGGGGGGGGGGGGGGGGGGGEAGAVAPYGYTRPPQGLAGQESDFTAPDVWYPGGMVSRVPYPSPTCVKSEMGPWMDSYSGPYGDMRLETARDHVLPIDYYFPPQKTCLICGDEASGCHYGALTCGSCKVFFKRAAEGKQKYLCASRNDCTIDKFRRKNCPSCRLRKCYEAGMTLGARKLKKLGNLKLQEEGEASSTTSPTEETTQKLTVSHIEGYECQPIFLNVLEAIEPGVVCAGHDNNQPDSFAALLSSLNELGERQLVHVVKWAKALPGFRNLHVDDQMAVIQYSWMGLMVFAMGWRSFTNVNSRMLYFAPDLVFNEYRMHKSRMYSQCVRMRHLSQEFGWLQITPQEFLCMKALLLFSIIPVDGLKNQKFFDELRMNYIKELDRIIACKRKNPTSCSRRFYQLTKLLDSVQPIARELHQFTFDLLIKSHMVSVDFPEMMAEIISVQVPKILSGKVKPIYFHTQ
Assay: MMTV-luciferase reporter gene agonist assay, transfected CV-1 cells
Format: cell-based
Details: agonist mode, […] h, […] °C
Text: MMTV-luciferase reporter gene agonist assay, transfected CV-1 cells on androgen receptor (AR)

Compound | Agonist activity in CV-1 / EC50 (unreliable) [µM] | Agonist activity in CV-1 / EC50 (unreliable (above top tested concentration […])) [µM]
C[C@](O)(COc1ccc(C#N)cc1)C(=O)Nc1cccc(S(F)(F)(F)(F)F)c1 [12a, (S)-3-(4-cyanophenoxy)-2-hydroxy-2-methyl-N-(3-(pentafluoro-l6-sulfanyl)phenyl)propanamide] | 1.508 ± 0.4299 | 
C[C@](O)(COc1ccc(Cl)cc1)C(=O)Nc1cccc(S(F)(F)(F)(F)F)c1 [12c, (S)-3-(4-chlorophenoxy)-2-hydroxy-2-methyl-N-(3-(pentafluoro-l6-sulfanyl)phenyl)propanamide] | 1.282 ± 0.0792 | 
C[C@](O)(COc1ccc(F)cc1)C(=O)Nc1cccc(S(F)(F)(F)(F)F)c1 [12b, (S)-3-(4-fluorophenoxy)-2-hydroxy-2-methyl-N-(3-(pentafluoro-l6-sulfanyl)phenyl)propanamide] |  | 51.2135 ± 5.8061
CCC(=O)c1ccc(OC[C@](C)(O)C(=O)Nc2cccc(S(F)(F)(F)(F)F)c2)cc1 [12f, (S)-2-hydroxy-2-methyl-N-(3-(pentafluoro-l6-sulfanyl)phenyl)-3-(4-propionylphenoxy)propanamide] | 12.7335 ± 2.1447 | 
COc1ccc(OC[C@](C)(O)C(=O)Nc2ccc(S(F)(F)(F)(F)F)cc2)c(F)c1 [16g, (S)-3-(2-fluoro-4-methoxyphenoxy)-2-hydroxy-2-methyl-N-(4-(pentafluorosulfanyl)phenyl)propanamide] | 2.144 ± 0.6944 | 
